This passage reports IC50 results from patent publication US11111242B2, “Pyrrolo[2,3-d]pyrimidinyl, pyrrolo[2,3-b]pyrazinyl and pyrrolo[2,3-d]pyridinyl acrylamides” (Pfizer Inc., priority 2013, dated 2021).

The structures appear in SMILES notation. Read-outs that look alike come from different tables or passages of the source.

In test [1] the test system is IL-15 induced P-STAT5 in human PBMC (total lymphocytes). The test can be described thus: PBMC IL-15 Induced P-STAT5. Format: cell-based. The conditions noted are these: IL-15 stimulated, read-out: PBMC IL15-pSTAT5 IC50. Put shortly: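 Thawed human PBMC in RPMI, preincubated 30 min at 37 °C, then IL-15 stimulated. Cells methanol-permeabilized (90%, on ice 20 min) and stained for phospho-STAT5. Read by flow cytometry, gated on total lymphocytes.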

Test [2] deals with IL-15 induced STAT5 phosphorylation in Human Whole Blood (total lymphocytes). The test can be described thus: HWB IL-15 Induced STAT5 Phosphorylation Assay. Format: cell-based. The conditions noted are these: Lymphocyte, IL-15 stimulated, read-out: HWB-IL15-pSTAT5 IC50. As for the experimental part:
HWB IL-15 Induced STAT5 Phosphorylation Assay
After mixing and incubating for 45 minutes at 37° C., 5 μl D-PBS (unstimulated control) or 20× stocks of 5 μl human IL-15 (final concentration is 50 ng/ml) were added, and mixed three times. After incubating 15 minutes at 37° C., 1× Lyse/Fix Buffer (BD Phosflow 5× Lyse/Fix Buffer) was added to all wells at 1000 μl/well, then incubated for 20 minutes at 37° C. and spun 5 mins at 1200 rpm. […] Following incubating at 4° C. over night, all the samples were transferred to 96-well polypropylene U-bottom plate, and checked by flow cytometry gated on total lymphocytes.

In general, IC50 refers to the point on the concentration scale where inhibition reaches its midpoint. Turning to `C=CC(=O)N1CC[C@@H](CNc2cnc3[nH]cc(C(=O)NC(C)C)c3n2)C1` [Example 191, 2-({[(3S)-1-acryloylpyrrolidin-3-yl]methyl}amino)-N-(propan-2-yl)-5H-pyrrolo[2,3-b]pyrazine-7-carboxamide], the results for the IC50 in test [1] and in test [2] were 2650 nM and 9580 nM, respectively.

In the case of `C=CC(=O)N1CC[C@@H](Nc2cnc3[nH]cc(C(=O)NC(C)C)c3n2)[C@H](O)C1` [Example 196, 2-{[(3R,4R)-1-acryloyl-3-hydroxypiperidin-4-yl]amino}-N-(propan-2-yl)-5H-pyrrolo[2,3-b]pyrazine-7-carboxamide], the IC50 in test [1] amounted to 1490 nM; in test [2], 3290 nM.

For the compound `C=CC(=O)N1CCC(Nc2cnc3[nH]cc(C(=O)N[C@@H]4CCC[C@@H]4F)c3n2)CC1` [Example 251, 2-[(1-acryloylpiperidin-4-yl)amino]-N-[(1R,2S)-2-fluorocyclopentyl]-5H-pyrrolo[2,3-b]pyrazine-7-carboxamide], the IC50 came out at 73.9 nM in test [1] and 810 nM in test [2].

For `C=CC(=O)N1C[C@H](Nc2ccnc3[nH]cc(C#N)c23)CC[C@@H]1C` [Example 165, 4-{[(3R,6S)-1-Acryloyl-6-methylpiperidin-3-yl]amino}-1H-pyrrolo[2,3-b]pyridine-3-carbonitrile], the IC50 in test [1] (Homo sapiens, PBMC) was 40.6 nM; in test [2], 380 nM.

Turning to `C=CC(=O)N1CCC(Nc2cnc3[nH]cc(C(=O)N[C@@H](C)CC)c3n2)CC1` [Example 285, 2-[(1-acryloylpiperidin-4-yl)amino]-N-[(2S)-butan-2-yl]-5H-pyrrolo[2,3-b]pyrazine-7-carboxamide], the IC50 was determined as 31.4 nM in test [1] and 373 nM in test [2].

Consider `C=CC(=O)N1CCN(c2cnc3[nH]cc(C(=O)NC(C)C)c3n2)C[C@@H]1C` [Example 295, 2-[(3S)-4-acryloyl-3-methylpiperazin-1-yl]-N-(propan-2-yl)-5H-pyrrolo[2,3-b]pyrazine-7-carboxamide], for which the values for the IC50 in test [1] and in test [2] were 334 nM and 2670 nM, respectively.

In the case of `C=CC(=O)N1CC[C@H](C)[C@@H](Nc2ncnc3[nH]ccc23)C1` [Example 11, 1-((3R,4S)-3-((7H-pyrrolo[2,3-d]pyrimidin-4-yl)amino)-4-methylpiperidin-1-yl)prop-2-en-1-one], the IC50 in test [1] (Homo sapiens, PBMC) came out at 97.9 nM; in test [2], 363 nM.

On to `C=CC(=O)N1CCC(Nc2cnc3[nH]cc(-c4cccnc4)c3n2)CC1` [Example 205, 1-(4-{[7-(pyridin-3-yl)-5H-pyrrolo[2,3-b]pyrazin-2-yl]amino}piperidin-1-yl)prop-2-en-1-one], for which the IC50 in test [1] stood at 219 nM; in test [2], 1880 nM.

As for `C=CC(=O)N1CCC(C)(Nc2cnc3[nH]cc(C(=O)NC(C)C)c3n2)CC1` [Example 318, 2-[(1-acryloyl-4-methylpiperidin-4-yl)amino]-N-(propan-2-yl)-5H-pyrrolo[2,3-b]pyrazine-7-carboxamide], the IC50 in test [1] is 260 nM; in test [2], 2080 nM.

For `C=CC(=O)N1CCC(Nc2cnc3[nH]cc(C(=O)N[C@@H](C)COC)c3n2)CC1` [Example 277, 2-[(1-acryloylpiperidin-4-yl)amino]-N-[(2S)-1-methoxypropan-2-yl]-5H-pyrrolo[2,3-b]pyrazine-7-carboxamide], the IC50 is 103 nM in test [1] (Homo sapiens, PBMC) and 83.2 nM in test [2].

As for `C=CC(=O)N1CCC(Nc2cnc3[nH]cc(C(=O)NC(C)(C)CC)c3n2)CC1` [Example 276, 2-[(1-acryloylpiperidin-4-yl)amino]-N-(2-methylbutan-2-yl)-5H-pyrrolo[2,3-b]pyrazine-7-carboxamide], the IC50 was found to be 57.8 nM in test [1] and 487 nM in test [2].

On to `C=CC(=O)N1CCC(Nc2cnc3[nH]cc(-c4ccnc(C)c4)c3n2)CC1` [Example 201, 1-(4-{[7-(2-methylpyridin-4-yl)-5H-pyrrolo[2,3-b]pyrazin-2-yl]amino}piperidin-1-yl)prop-2-en-1-one], for which the IC50 in test [1] is 262 nM; in test [2] it was 3480 nM.

With `C=CC(=O)N1CC(Nc2cnc3[nH]ccc3n2)C1` [Example 337, 1-(3-((5H-Pyrrolo[2,3-b]pyrazin-2-yl)amino)azetidin-1-yl)prop-2-en-1-one], the IC50 turned out to be 237 nM in test [1] (Homo sapiens, PBMC) and 631 nM in test [2].

In the case of `C=CC(=O)N1C[C@@H](C)C[C@@H](Nc2ncnc3[nH]ccc23)C1` (single isomer, unassigned) [Example 14], the IC50 in test [1] was 114 nM; in test [2] it was 538 nM.

On to `C=CC(=O)N1C[C@H](C#N)C[C@@H](Nc2ncnc3[nH]ccc23)C1` [Example 6, (3R,5R)-5-((7H-pyrrolo[2,3-d]pyrimidin-4-yl)amino)-1-acryloylpiperidine-3-carbonitrile], for which the IC50 came to 45.8 nM in test [1] and 870 nM in test [2].

With `C=CC(=O)N1C[C@@H](F)C[C@@H](Nc2ncnc3[nH]ccc23)C1` [Example 15, 1-((3R,5S)-3-((7H-Pyrrolo[2,3-d]pyrimidin-4-yl)amino)-5-fluoropiperidin-1-yl)prop-2-en-1-one], the IC50 in test [1] (Homo sapiens, PBMC) was determined as 128 nM; in test [2], 400 nM.

On to `C=CC(=O)N1CCC(Nc2cnc3[nH]cc(C(=O)NC45CC(C4)C5)c3n2)CC1` [Example 281, 2-[(1-acryloylpiperidin-4-yl)amino]-N-(bicyclo[1.1.1]pent-1-yl)-5H-pyrrolo[2,3-b]pyrazine-7-carboxamide], for which the IC50 in test [1] (Homo sapiens, PBMC) was 31.5 nM; in test [2], 489 nM.

For `C=CC(=O)N1CC(Nc2cnc3[nH]cc(C(=O)NC(C)C)c3n2)C1` [Example 188, 2-[(1-acryloylazetidin-3-yl)amino]-N-(propan-2-yl)-5H-pyrrolo[2,3-b]pyrazine-7-carboxamide], the IC50 in test [1] (Homo sapiens, PBMC) worked out at 155 nM; in test [2] it was 246 nM.

As to `C#CCNC(=O)c1c[nH]c2ncc(NC3CCN(C(=O)C=C)CC3)nc12` [Example 343, 2-((1-Acryloylpiperidin-4-yl)amino)-N-(prop-2-yn-1-yl)-5H-pyrrolo[2,3-b]pyrazine-7-carboxamide], the results for the IC50 in test [1] and in test [2] were 36.8 nM and 105 nM, respectively.

Turning to `C=CC(=O)N1C[C@H](Nc2ncnc3[nH]ccc23)C[C@H](OC)C1` [Example 19, 1-((3R,5S)-3-((7H-Pyrrolo[2,3-d]pyrimidin-4-yl)amino)-5-methoxypiperidin-1-yl)prop-2-en-1-one], the IC50 in test [1] came out at 139 nM; in test [2], 505 nM.

As to `C=CC(=O)N1C[C@H](Nc2ncnc3[nH]ccc23)CC[C@@H]1CC` (single isomer, unassigned) [Example 9], the IC50 in test [1] (Homo sapiens, PBMC) came out at 35.5 nM; in test [2], 578 nM.

Take `C=CC(=O)N1CCC(Nc2cnc3[nH]cc(C(=O)NC4CC(F)C4)c3n2)CC1` (stereo not drawn) [Example 243, 2-[(1-acryloylpiperidin-4-yl)amino]-N-(3-fluorocyclobutyl)-5H-pyrrolo[2,3-b]pyrazine-7-carboxamide]: the IC50 in test [1] came out at 155 nM; in test [2], 617 nM.

With `C=CC(=O)N1CCC(Nc2cnc3[nH]cc(C(=O)NC4CC(F)(F)C4)c3n2)CC1` [Example 245, 2-[(1-acryloylpiperidin-4-yl)amino]-N-(3,3-difluorocyclobutyl)-5H-pyrrolo[2,3-b]pyrazine-7-carboxamide], the IC50 was found to be 228 nM in test [1] and 901 nM in test [2].

With `C=CC(=O)N1CCC(Nc2cnc3[nH]cc(C(=O)NCCCC)c3n2)CC1` [Example 269, 2-[(1-acryloylpiperidin-4-yl)amino]-N-butyl-5H-pyrrolo[2,3-b]pyrazine-7-carboxamide], the IC50 in test [1] worked out at 47.9 nM; in test [2], 364 nM.

As to `C=CC(=O)N1CCC(Nc2cnc3[nH]cc(C(=O)NCCC(F)(F)F)c3n2)CC1` [Example 246, 2-[(1-acryloylpiperidin-4-yl)amino]-N-(3,3,3-trifluoropropyl)-5H-pyrrolo[2,3-b]pyrazine-7-carboxamide], the IC50 in test [1] was 43 nM; in test [2], 186 nM.

As to `C=CC(=O)N1CCC(Nc2cnc3[nH]cc(C(=O)NC4CCC4)c3n2)CC1` [Example 280, 2-[(1-acryloylpiperidin-4-yl)amino]-N-cyclobutyl-5H-pyrrolo[2,3-b]pyrazine-7-carboxamide], the figures for the IC50 in test [1] and in test [2] were 39.4 nM and 376 nM, respectively.

In the case of `C=CC(=O)N1CCC(Nc2cnc3[nH]cc(C(=O)NC(C)C4CC4)c3n2)CC1` (stereo not drawn) [Example 288, 2-[(1-acryloylpiperidin-4-yl)amino]-N-(1-cyclopropylethyl)-5H-pyrrolo[2,3-b]pyrazine-7-carboxamide], the IC50 in test [1] (Homo sapiens, PBMC) was 44.4 nM; in test [2] it was 358 nM.

Regarding `C=CC(=O)N1CCC(Nc2cnc3[nH]cc(C(=O)N[C@@H](C)CCC)c3n2)CC1` [Example 267, 2-[(1-acryloylpiperidin-4-yl)amino]-N-[(2S)-pentan-2-yl]-5H-pyrrolo[2,3-b]pyrazine-7-carboxamide], the IC50 in test [1] was determined as 36 nM; in test [2], 242 nM.

With `C=CC(=O)N1CCC(Nc2cnc3[nH]cc(C(=O)NCC(C)CC(F)(F)F)c3n2)CC1` (stereo not drawn) [Example 253, 2-[(1-acryloylpiperidin-4-yl)amino]-N-(4,4,4-trifluoro-2-methylbutyl)-5H-pyrrolo[2,3-b]pyrazine-7-carboxamide], the concentration for half-maximal inhibition (IC50) in test [1] (Homo sapiens, PBMC) was 77.5 nM; in test [2], 429 nM.

As for `C=CC(=O)N1C[C@@H](O)C[C@@H](Nc2ncnc3[nH]ccc23)C1` [Example 17, 1-((3R,5S)-3-(7H-Pyrrolo[2,3-d]pyrimidin-4-ylamino)-5-hydroxypiperidin-1-yl)prop-2-en-1-one], the IC50 in test [1] (Homo sapiens, PBMC) was 71.8 nM; in test [2], 210 nM.
